Reference: US20030139431A1 (priority 2001, published 2003)

What was measured:
rNPFF1 [1] = target: T1, rNPFF1 (Rattus norvegicus, UniProt Q9EP86); assay: Functional assay (agonist potency, intrinsic activity) at cloned rat NPFF1 receptor; type: cell-based; details: for rNPFF1 IA (intrinsic activity): percent of maximum response elicited by neuropeptide FF, rat NPFF1; for EC50: recombinant rat NPFF1
T1 construct: expressed in transfected cells
Method: (§1) Intrinsic activity of a compound is measured as the percent of maximum response.

rNPFF2 [2] = target: T2, rNPFF2 (Rattus norvegicus, UniProt Q9EQD2); assay: Functional assay (agonist potency, intrinsic activity) at cloned rat NPFF2 receptor; type: cell-based; details: for rNPFF2 IA (intrinsic activity): percent of maximum response elicited by neuropeptide FF, rat NPFF2; for EC50: recombinant rat NPFF2
T2 construct: expressed in transfected cells
T2 sequence (Q9EQD2 whole entry): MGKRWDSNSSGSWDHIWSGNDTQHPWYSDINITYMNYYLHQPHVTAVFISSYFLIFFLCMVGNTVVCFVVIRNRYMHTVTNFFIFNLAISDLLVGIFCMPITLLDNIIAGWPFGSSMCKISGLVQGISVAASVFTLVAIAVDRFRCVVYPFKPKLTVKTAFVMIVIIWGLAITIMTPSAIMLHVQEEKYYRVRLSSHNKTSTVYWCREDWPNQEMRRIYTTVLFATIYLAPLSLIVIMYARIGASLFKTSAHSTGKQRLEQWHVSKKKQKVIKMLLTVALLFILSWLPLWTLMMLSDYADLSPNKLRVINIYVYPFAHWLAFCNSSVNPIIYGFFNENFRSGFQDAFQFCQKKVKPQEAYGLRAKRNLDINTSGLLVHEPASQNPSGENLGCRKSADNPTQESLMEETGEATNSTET
Method: as §1

rNPFF2 [3] = target: T2, rNPFF2; assay: Binding affinity at cloned recombinant rat NPFF2 receptor
rNPFF1 [4] = target: T1, rNPFF1; assay: Binding affinity at cloned recombinant rat NPFF1 receptor

T1 sequence (Q9EP86 whole entry): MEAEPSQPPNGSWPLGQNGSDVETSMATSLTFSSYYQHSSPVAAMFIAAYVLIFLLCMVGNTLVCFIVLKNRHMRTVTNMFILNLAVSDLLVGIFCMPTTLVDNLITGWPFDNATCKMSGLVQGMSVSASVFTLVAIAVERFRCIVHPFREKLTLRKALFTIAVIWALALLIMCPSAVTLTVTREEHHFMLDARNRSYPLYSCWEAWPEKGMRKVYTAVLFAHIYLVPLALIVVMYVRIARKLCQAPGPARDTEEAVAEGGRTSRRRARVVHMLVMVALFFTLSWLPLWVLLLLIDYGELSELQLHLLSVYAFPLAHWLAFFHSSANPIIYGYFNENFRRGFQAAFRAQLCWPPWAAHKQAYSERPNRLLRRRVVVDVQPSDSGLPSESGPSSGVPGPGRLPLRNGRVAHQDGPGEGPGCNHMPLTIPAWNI

rNPFF1 IA (intrinsic activity) (rNPFF1 [1])	EC50 (rNPFF1 [1]) [nM]	rNPFF2 IA (intrinsic activity) (rNPFF2 [2])	EC50 (rNPFF2 [2]) [nM]	Ki (rNPFF2 [3]) [nM]	Ki (rNPFF1 [4]) [nM]	Compound
15% NPFF	> 10000	22% NPFF	1080	1070	410	Cc1nc(NC(=N)N)nc2cc(OCc3ccccc3)ccc12 [Compound 1006, N-[7-(benzyloxy)-4-methyl-2-quinazolinyl]guanidine]
Inactive	> 10000	83% NPFF	392	1640	238	CCc1ccc2nc(NC(=N)N)nc(C)c2c1 [Compound 1003, N-(6-ethyl-4-methyl-2-quinazolinyl)guanidine]
Inactive	> 10000	27% NPFF	3160	4530	253	Cc1nc(NC(=N)N)nc2cc(OC(C)C)ccc12 [Compound 1025, N-[4-methyl-7-(isopropoxy)-2-quinazolinyl]guanidine]
Inactive	> 10000	21% NPFF	3160	2140	316	Cc1nc(NC(=N)N)nc2ccc(OCCCCCOc3ccccc3)cc12 [Compound 1005, N-4-methyl-6-[(5-phenoxypentyl)oxy]-2-quinazolinylguanidine]
Inactive	> 10000	Inactive	> 10000	5590	659	CCOc1ccc2c(C)nc(NC(=N)N)nc2c1 [Compound 1024, N-(7-ethoxy-4-methyl-2-quinazolinyl)guanidine]
Inactive	> 10000	85% NPFF	625	4860	176	Cc1nc(NC(=N)N)nc2ccc(OC(F)(F)F)cc12 [Compound 1030, N-[4-methyl-6-(trifluoromethoxy)-2-quinazolinyl]guanidine]
63% NPFF	610	101% NPFF	394	1540	82	Cc1nc(NC(=N)N)nc2ccc(CCCC(C)O)cc12 (stereo not drawn) [Compound 1034, N-(6-[1-(4-hydroxyl-pentyl)]-4-methyl-2-quinazolino)guanidine]
31% NPFF	374	93% NPFF	459	1640	291	Cc1nc(NC(=N)N)nc2ccc(Oc3ccccc3)cc12 [Compound 1032, N-(4-methyl-6-phenoxy-2-quinazolinyl)guanidine]
51% NPFF	250	92% NPFF	423	461	77	CCC(C)c1ccc2nc(NC(=N)N)nc(C)c2c1 (stereo not drawn) [Compound 2002, N-(6-sec-butyl-4-methyl-2-quinazolinyl)guanidine]
Inactive	> 10000	47% NPFF	2460	3440	300	Cc1nc(NC(=N)N)nc2cc(Br)ccc12 [Compound 1014, N-(7-bromo-4-methyl-2-quinazolinyl)guanidine]
28% NPFF	> 10000	31% NPFF	2050	1200	912	Cc1nc(NC(=N)N)nc2ccc(C3CCCCC3)cc12 [Compound 1029, N-(6-cyclohexyl-4-methyl-2-quinazolinyl)guanidine]
36% NPFF	1470	90% NPFF	440	1490	710	Cc1nc(NC(=N)N)nc2ccc(C(C)(C)C)cc12 [Compound 1004, N-(6-tert-butyl-4-methyl-2-quinazolinyl)guanidine]
Inactive	> 10000	Inactive	> 10000	> 10000	201	COc1ccc2nc(NC(=N)N)nc(C)c2c1 [Compound 1011, N-(6-methoxy-4-methyl-2-quinazolinyl)guanidine]
Inactive	> 10000	23% NPFF	> 10000	5920	234	Cc1cc2nc(NC(=N)N)nc(C)c2cc1O [Compound 1017, N-(6-hydroxy-4,7-dimethyl-2-quinazolinyl)guanidine]
Inactive	> 10000	52% NPFF	3160	1180	842	Cc1nc(NC(=N)N)nc2cc(C(C)O)ccc12 (stereo not drawn) [Compound 1035, N-[7-(1-hydroxyethyl)-4-methyl-2-quinazolinyl]guanidine]
Inactive	> 10000	85% NPFF	619	1120	155	CCCc1ccc2nc(NC(=N)N)nc(C)c2c1 [Compound 1008, N-(4-methyl-6-propyl-2-quinazolinyl)guanidine]
40% NPFF	194	101% NPFF	124	262	392	CCCCc1ccc2nc(NC(=N)N)nc(C)c2c1 [Compound 2004, N-(6-butyl-4-methyl-2-quinazolinyl)guanidine]
Inactive	> 10000	52% NPFF	690	2020	332	Cc1nc(NC(=N)N)nc2ccc(Cl)cc12 [Compound 1013, N-(6-chloro-4-methyl-2-quinazolinyl)guanidine]
Inactive	> 10000	51% NPFF	3160	5860	481	Cc1ccc(Oc2ccc3nc(NC(=N)N)nc(C)c3c2)cc1 [Compound 1033, N-[4-methyl-6-(4-methylphenoxy)-2-quinazolinyl]guanidine]
Inactive	> 10000	76% NPFF	283	881	56	Cc1nc(NC(=N)N)nc2cc(C(C)C)ccc12 [Compound 1021, N-(7-isopropyl-4-methyl-2-quinazolinyl)guanidine]

Compound	rNPFF1 IA (intrinsic activity) (rNPFF1 [1])	EC50 (rNPFF1 [1]) [nM]	rNPFF2 IA (intrinsic activity) (rNPFF2 [2])	EC50 (rNPFF2 [2]) [nM]	Ki (rNPFF2 [3]) [nM]	Ki (rNPFF1 [4]) [nM]
CCCCOc1ccc2nc(NC(=N)N)nc(C)c2c1 [Compound 1012, N-(6-butoxy-4-methyl-2-quinazolinyl)guanidine]	Inactive	> 10000	80% NPFF	1620	4850	733
CCCCOc1cc2nc(NC(=N)N)nc(C)c2cc1OCCCC [Compound 1018, N-(6,7-dibutoxy-4-methyl-2-quinazolinyl)guanidine]	Inactive	> 10000	Inactive	> 10000	1300	303
